Legend:
[1] = GC retention time (DB-5MS, GC-APCI); higher = later elution
Procedure: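 Standards of hydrophobic organic contaminants were analysed by GC-APCI (positive mode, dry or wet source conditions) coupled to cyclic ion mobility-QTOF MS. CCS was measured for the base ion (sometimes a fragment ion) in N2 drift gas (one-pass mode, calibrated with a Waters 22-compound mix). 5 mL/min).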

[2] = collision cross section (N2, base ion); higher = larger ion cross section
Procedure: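 Standards of hydrophobic organic contaminants were analysed by GC-APCI (positive mode, dry or wet source conditions) coupled to cyclic ion mobility-QTOF MS. CCS was measured for the base ion (sometimes a fragment ion) in N2 drift gas (one-pass mode, calibrated with a Waters 22-compound mix).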

For `c1ccc2c(c1)ccc1c3ccccc3ccc21` [Chrysene] (APCI source condition: Dry, base ion: M+.), the GC retention time [1] was 21.9 min and the collision cross section [2] was 141.28 Å².
`c1ccc2cc3c(cc2c1)-c1cccc2cccc-3c12` [Benzo(k)fluoranthene] (APCI source condition: Dry, base ion: M+.) gave a GC retention time [1] of 24.2 min and a collision cross section [2] of 145.45 Å².
For `c1cc2cccc3c4cccc5cccc(c(c1)c23)c54` [Perylene] (APCI source condition: Dry, base ion: M+.), the GC retention time [1] was 25 min and the collision cross section [2] was 143.02 Å².
Compound `Brc1ccc(Oc2c(Br)cc(Br)cc2Br)c(Br)c1` [PBDE 100] (APCI source condition: Dry, base ion: M+.) has a GC retention time [1] of 23.7 min and a collision cross section [2] of 169.85 Å².
`Clc1ccc(Cl)c(Cl)c1Cl` [1,2,3,4-Tetrachlorobenzene] (APCI source condition: Dry, base ion: M+.) gave a GC retention time [1] of 9.99 min and a collision cross section [2] of 135.67 Å².
Work on `Brc1cccc(Oc2c(Br)c(Br)c(Br)c(Br)c2Br)c1Br` [PBDE 173] (APCI source condition: Dry, base ion: M+.) yielded a GC retention time [1] of 30.2 min and a collision cross section [2] of 185.08 Å².
`c1ccc2c(c1)sc1ccccc12` [Dibenzothiophene] (APCI source condition: Dry, base ion: M+.) showed a GC retention time [1] of 15.2 min and a collision cross section [2] of 137.55 Å².
`O=P(Oc1ccccc1)(Oc1ccccc1)Oc1ccccc1` [Triphenylphosphate] (APCI source condition: Wet, base ion: [M+H]+) showed a GC retention time [1] of 21.1 min and a collision cross section [2] of 168.91 Å².
`Clc1ccc(-c2ccccc2Cl)cc1` [PCB 7] (APCI source condition: Dry, base ion: M+.) gave a GC retention time [1] of 14.6 min and a collision cross section [2] of 137.98 Å².
`c1ccc2c(c1)cc1ccc3cccc4ccc2c1c34` [Benzo(a)pyrene] (APCI source condition: Dry, base ion: M+.) showed a GC retention time [1] of 24.8 min and a collision cross section [2] of 143.28 Å².
In the case of `Brc1ccc(Oc2ccc(Br)c(Br)c2)c(Br)c1` [PBDE 66] (APCI source condition: Dry, base ion: M+.), the GC retention time [1] is reported as 22.5 min and the collision cross section [2] is reported as 163.83 Å².
`Clc1ccc(C(c2ccc(Cl)cc2)C(Cl)Cl)cc1` [4,4'-DDD] (APCI source condition: Dry, base ion: [M-CHCl2]+) gave a GC retention time [1] of 20.1 min and a collision cross section [2] of 142.2 Å².
`Clc1cc(Cl)c(-c2ccc(Cl)c(Cl)c2Cl)cc1Cl` [PCB 138] (APCI source condition: Dry, base ion: M+.) gave a GC retention time [1] of 20.8 min and a collision cross section [2] of 159.68 Å².
Compound `Brc1ccc(Oc2cc(Br)c(Br)cc2Br)c(Br)c1` [PBDE 99] (APCI source condition: Dry, base ion: M+.) has a GC retention time [1] of 24.2 min and a collision cross section [2] of 169.31 Å².
`Brc1ccc(Oc2cc(Br)ccc2Br)c(Br)c1` [PBDE 49] (APCI source condition: Dry, base ion: M+.) gave a GC retention time [1] of 21.8 min and a collision cross section [2] of 163.07 Å².
Work on `ClC1CCCC(Br)(Br)C(Cl)(C2=CCCC2)C(Cl)(Cl)C1(Cl)Cl` (configuration not stated) [Hexachlorocyclopentenyl-dibromocyclooctane] (APCI source condition: Dry, base ion: [M-CH4Cl2Br]+) yielded a GC retention time [1] of 24.4 min and a collision cross section [2] of 152.06 Å².
`Clc1ccc(Cl)c(-c2c(Cl)cccc2Cl)c1` [PCB 53] (APCI source condition: Dry, base ion: M+.) gave a GC retention time [1] of 16.6 min and a collision cross section [2] of 144.4 Å².
Work on `Clc1cccc(-c2cccc(Cl)c2Cl)c1Cl` [PCB 40] (APCI source condition: Dry, base ion: M+.) yielded a GC retention time [1] of 17.9 min and a collision cross section [2] of 144.96 Å².
In the case of `Brc1cc(Br)c(Oc2cc(Br)c(Br)c(Br)c2Br)c(Br)c1` [PBDE 182] (APCI source condition: Dry, base ion: M+.), the GC retention time [1] is reported as 28.4 min and the collision cross section [2] is reported as 185.51 Å².
Work on `C=CCOc1c(Br)cc(Br)cc1Br` [1,3,5-Tribromo-2-prop-2-enoxybenzene] (APCI source condition: Dry, base ion: [M-Br]+) yielded a GC retention time [1] of 15.2 min and a collision cross section [2] of 136.27 Å².
Work on `Clc1c(Cl)c(Cl)c(-c2c(Cl)c(Cl)c(Cl)c(Cl)c2Cl)c(Cl)c1Cl` [PCB 209] (APCI source condition: Dry, base ion: M+.) yielded a collision cross section [2] of 179.93 Å².
With `Brc1cc(Br)c(Oc2c(Br)cc(Br)c(Br)c2Br)cc1Br` [PBDE 183] (APCI source condition: Dry, base ion: M+.) the GC retention time [1] was 28.2 min and the collision cross section [2] was 184.97 Å².
`Brc1cc(Br)c(Oc2c(Br)cc(Br)c(Br)c2Br)c(Br)c1` [PBDE 184] (APCI source condition: Dry, base ion: M+.) showed a GC retention time [1] of 27.8 min and a collision cross section [2] of 181.4 Å².
`CCCCCCCCCCCCCCC(F)(F)C(F)(F)C(F)(F)C(F)(F)C(F)(F)C(F)(F)C(F)(F)C(F)(F)C(F)(F)C(F)(F)C(F)(F)C(F)(F)F` [1-(Perfluorododecyl)tetradecane] (APCI source condition: Dry, base ion: [M-H]+) showed a GC retention time [1] of 16.7 min and a collision cross section [2] of 250.16 Å².
In the case of `ClC1=C(Cl)C2(Cl)C3C4CC(C5OC45)C3C1(Cl)C2(Cl)Cl` (configuration not stated) [Endrin] (APCI source condition: Wet, base ion: [M+H]+), the GC retention time [1] is reported as 19.4 min and the collision cross section [2] is reported as 157.95 Å².
Compound `Clc1ccc(-c2cc(Cl)c(Cl)cc2Cl)cc1Cl` [PCB 118] (APCI source condition: Dry, base ion: M+.) has a GC retention time [1] of 19.9 min and a collision cross section [2] of 156.06 Å².
`Cl[C@H]1[C@H](Cl)[C@@H](Cl)[C@H](Cl)[C@@H](Cl)[C@@H]1Cl` [β-Hexachlorocyclohexane] (APCI source condition: Dry, base ion: [M-H2Cl3]+) showed a GC retention time [1] of 15.1 min and a collision cross section [2] of 138.19 Å².
`Clc1ccc(C(c2ccc(Cl)cc2)C(Cl)(Cl)Cl)cc1` [4,4'-DDT] (APCI source condition: Dry, base ion: [M-CCl3]+) gave a GC retention time [1] of 20.8 min and a collision cross section [2] of 140.31 Å².
With `c1ccc2c(c1)-c1cccc3c1c-2cc1ccccc13` [Benzo(b)fluoranthene] (APCI source condition: Dry, base ion: M+.) the GC retention time [1] was 24.2 min and the collision cross section [2] was 145.46 Å².
Work on `c1ccc2c(c1)ccc1ccccc12` [Phenanthrene] (APCI source condition: Dry, base ion: M+.) yielded a GC retention time [1] of 15.6 min and a collision cross section [2] of 137.89 Å².
With `CCCCC(CC)COP(=O)(Oc1ccccc1)Oc1ccccc1` (configuration not stated) [2-Ethylhexyl diphenyl phosphate] (APCI source condition: Wet, base ion: [M-C8H15]+) the GC retention time [1] was 21.3 min and the collision cross section [2] was 149.25 Å².
`Brc1ccc(Oc2ccc(Br)cc2Br)c(Br)c1` [PBDE 47] (APCI source condition: Dry, base ion: M+.) showed a GC retention time [1] of 22.2 min and a collision cross section [2] of 162.71 Å².
In the case of `CCCCCCOP(=O)(OCCCCCC)OCCCCCC` [Trihexyl phosphate] (APCI source condition: Wet, base ion: [M+H]+), the GC retention time [1] is reported as 19.4 min and the collision cross section [2] is reported as 201 Å².
`ClC(Cl)=C(c1ccc(Cl)cc1)c1ccc(Cl)cc1` [4,4'-DDE] (APCI source condition: Dry, base ion: M+.) gave a GC retention time [1] of 19.3 min and a collision cross section [2] of 159.06 Å².
In the case of `Clc1ccc(Cl)c(-c2c(Cl)ccc(Cl)c2Cl)c1Cl` [PCB136] (APCI source condition: Dry, base ion: M+.), the GC retention time [1] is reported as 19.4 min and the collision cross section [2] is reported as 155.08 Å².
In the case of `Brc1c(Br)c(Br)c(Br)c(Br)c1Br` [Hexabromobenzene] (APCI source condition: Dry, base ion: M+.), the GC retention time [1] is reported as 21.8 min and the collision cross section [2] is reported as 135.29 Å².
`Clc1c(Cl)c(Cl)c(Cl)c(Cl)c1Cl` [Hexachlorobenzene] (APCI source condition: Dry, base ion: M+.) showed a GC retention time [1] of 14.6 min and a collision cross section [2] of 135.29 Å².
`Clc1cccc(-c2cccc(Cl)c2Cl)c1` [PCB 20] (APCI source condition: Dry, base ion: M+.) gave a GC retention time [1] of 16.6 min and a collision cross section [2] of 140.68 Å².
For `Clc1cc(-c2ccccc2)c(Cl)c(Cl)c1Cl` [PCB 61] (APCI source condition: Dry, base ion: M+.), the GC retention time [1] was 18.3 min and the collision cross section [2] was 148.05 Å².
For `Clc1cc(Cl)c(-c2c(Cl)c(Cl)cc(Cl)c2Cl)cc1Cl` [PCB 187] (APCI source condition: Dry, base ion: M+.), the GC retention time [1] was 21.1 min and the collision cross section [2] was 165.54 Å².
In the case of `O=S1OC[C@@H]2[C@H](CO1)[C@]1(Cl)C(Cl)=C(Cl)[C@]2(Cl)C1(Cl)Cl` (stereo partly drawn) [β-Endosulfan] (APCI source condition: Wet, base ion: [M+H]+), the GC retention time [1] is reported as 20 min and the collision cross section [2] is reported as 162.35 Å².
`C=C(Br)COc1c(Br)cc(Br)cc1Br` [2-Bromoallyl 2,4,6-tribromophenyl ether] (APCI source condition: Dry, base ion: [M-Br]+) gave a GC retention time [1] of 18.2 min and a collision cross section [2] of 143.35 Å².
With `Clc1cc(Cl)c(-c2c(Cl)ccc(Cl)c2Cl)cc1Cl` [PCB 149] (APCI source condition: Dry, base ion: M+.) the GC retention time [1] was 19.8 min and the collision cross section [2] was 158.29 Å².
In the case of `Clc1ccc(Cl)c(-c2cc(Cl)c(Cl)cc2Cl)c1` [PCB 101] (APCI source condition: Dry, base ion: M+.), the GC retention time [1] is reported as 18.8 min and the collision cross section [2] is reported as 155.45 Å².

— the supplement of paper PMC11923942
